Source: patent publication US20050101783A1, “N-(heterocycle-methyl)alkylamine derivative, process for producing the same, and bactericide” (priority 2000, published 2005)

Columns and labels:
Type in all cases: in vivo
cucumber powdery mildew = test: Preventive effect of cucumber powdery mildew (wettable powder sprayed on potted cucumber, preventive value); settings: wettable powder suspended at 100 mg/l, sprayed on potted cucumber at 100 l/10 a; morbidity investigated 9th to 14th day after inoculation
Experimental: (Preventive Effect of Cucumber Powdery Mildew)
The wettable powders obtained by using each compound were diluted with water and were suspended at a predetermined concentration (100 mg/l) and the solution was sprayed over the first to second leaf stage-cucumber (variety: “Sagamihanpakufushinari”) cultivated by using a square plastic pot (size: 6.4 cm×6.4 cm) at a rate of 100 1/10 a.
After the sprayed leaves were air-dried, the spore was inoculated over the aforementioned air-dried leaves from the contracted leaves with a brush, and the contraction was performed in a glass greenhouse (temperature: 20 to 24° C. and relative humidity: 20 to 70 RH). The morbidity rate was investigated based on the same investigation standard as that in the preventive effect test of the cucumber gray mold on 9th to 14th day after the inoculation, and the preventive value was calculated according to the aforementioned formula 2.

cucumber gray mold = test: Preventive effect test of cucumber gray mold (wettable powder sprayed on potted cucumber, preventive value); settings: wettable powder suspended at 250 mg/l, sprayed on potted cucumber at 100 l/10 a; morbidity investigated 4th to 6th day after inoculation
Experimental: (Preventive Effect Test of Cucumber Gray Mold)
The wettable powders obtained by using each compound were diluted with water and were suspended at a predetermined concentration (250 mg/l) and the solution was sprayed over the first to second leaf stage-cucumber (variety: “Sagamihanpakufushinari”) cultivated by using a square plastic pot (size: 6.4 cm×6.4 cm) at a rate of 100 1/10 a.
After the sprayed leaves were air-dried, a paper disk where the solution of the spore of the gray mold suspended with water was impregnated was put on the aforementioned sprayed leaves, and the leaves were contracted in a glass greenhouse (temperature: 20 to 24° C. and relative humidity: 20 to 70 RH). The morbidity rate was investigated based on the following investigation standard on 4th to 6th day after the inoculation and the preventive value was calculated according to the following formula 2.

[1] = test system: Erysiphe graminis f. sp tritici; test: Preventive effect test of wheat powdery mildew (wettable powder sprayed on potted wheat, preventive value); settings: wettable powder suspended at 250 mg/l, sprayed on potted wheat at 100 l/10 a; morbidity investigated 9th to 14th day after inoculation
Experimental: (Preventive Effect Test of Erysiphe graminis f. sp […])
The wettable powders obtained by using each compound were diluted with water and were suspended at a predetermined concentration (250 mg/l) and the solution was sprayed over the first to second leaf stage-wheat (variety. Agriculture and Forestry No. 64) cultivated by using a square plastic pot (size: 6.4 cm×6.4 cm) at a rate of 100 1/10 a (are).
After the sprayed leaves were air-dried, the suspension of the spore of Erysiphe graminis f. sp tritici germ sampled from the contracted leaves were sprayed and inoculated over the sprayed leaf after air-dried, the leaves were kept at 20 to 24° C. under a high-humidity condition for 24 hours, then, the leaves were subjected to still standing in a greenhouse (temperature: 20 to 24° C. and relative humidity: 20 to 70 RH). The morbidity rate was investigated based on the following investigation standard on 9th to 14th day after the inoculation and the preventive value was calculated according to the following formula 1.

Row | SMILES | Preventive Value (%) (cucumber powdery mildew) | Preventive Value (%) (cucumber gray mold) | Preventive Value (%) [1]
1 | CC(Cc1ccc(Cl)cc1Cl)CN(C)Cc1ccc(Cl)nc1 (stereo not drawn) [Compound (a), 6-chloro-N-methyl-N-[2-methyl-3-(2,4-dichlorophenyl)propyl]-3-pyridylmethylamine, reference compound] | 70% | 80% | 60%
2 | CC(Cc1cccc(Cl)c1)CN(C)Cc1ccc(Cl)nc1 (stereo not drawn) [Compound (b), 6-chloro-N-methyl-N-[2-methyl-3-(3-chlorophenyl)propyl]-3-pyridylmethylamine, reference compound] | 80% | 30% | 70%
3 | CN(Cc1cccnc1)CC(C)(C)Cc1ccc(C(C)(C)C)cc1 [Compound I-16] |  | 100% | 
4 | CN(Cc1ccc(F)nc1)CC(C)(C)Cc1ccc(C(C)(C)C)cc1 [Compound I-19] | 100% | 100% | 100%
5 | CN(Cc1cccnc1Cl)CC(C)(C)Cc1ccc(C(C)(C)C)cc1 [Compound I-20] |  | 100% | 
6 | Cc1ncc(CN(C)CC(C)(C)Cc2ccc(C(C)(C)C)cc2)cn1 [Compound I-21] |  | 100% | 
7 | CN(Cc1ccc(Cl)nc1)CC(C)(C)Cc1ccc(C(C)(C)C)cc1 [Compound I-25] |  | 100% | 
8 | CC(C)Oc1cccc(CC(C)(C)CN(C)Cc2ccc(Cl)nc2)c1 [Compound I-27] |  |  | 100%
9 | CN(Cc1ccc(Cl)nc1)CC(C)(C)Cc1ccc(Cl)cc1 [Compound I-28] |  | 100% | 100%
10 | CN(Cc1ccc(Cl)nc1)CC(C)(C)Cc1cccc(Cl)c1 [Compound I-29] |  | 100% | 
11 | CN(Cc1ccc(Cl)nc1)CC(C)(C)Cc1ccc(Cl)cc1Cl [Compound I-31] |  | 100% | 
12 | CN(Cc1ccc(Cl)nc1)CC(C)(C)Cc1cc(Cl)ccc1Cl [Compound I-32] |  | 100% | 
13 | CN(Cc1ccc(Cl)nc1)CC(C)(C)Cc1ccc(Cl)c(Cl)c1 [Compound I-33] |  | 100% | 
14 | CN(Cc1ccc(Cl)nc1)CC(C)(C)Cc1cc(Cl)cc(Cl)c1 [Compound I-34] |  | 100% | 
15 | CN(Cc1ccc(Cl)nc1)CC(C)(C)Cc1ccc(Oc2ccccc2)cc1 [Compound I-35] |  | 100% | 
16 | CN(Cc1ccc(Cl)nc1)CC(C)(C)Cc1cccc(Oc2ccccc2)c1 [Compound I-36] |  | 100% | 
17 | CN(Cc1ccc(Cl)nc1)CC(C)(C)Cc1ccc(F)c(Oc2ccccc2)c1 [Compound I-38] |  | 100% | 
18 | Cc1ccc(Oc2cccc(CC(C)(C)CN(C)Cc3ccc(Cl)nc3)c2)cc1 [Compound I-39] |  | 100% | 
19 | CN(Cc1ccc(Cl)nc1)CC(C)(C)Cc1cccc(Oc2cccc(C(F)(F)F)c2)c1 [Compound I-40] |  | 100% | 
20 | CN(Cc1ccc(Cl)nc1)CC(C)(C)Cc1cccc(OC(F)(F)F)c1 [Compound I-46] |  | 100% | 
21 | CN(Cc1ccc(Cl)nc1)CC(C)(C)Cc1cccc(OC(F)(F)C(F)F)c1 [Compound I-48] |  | 100% | 
22 | CN(Cc1ccc(Cl)nc1)CC(C)(C)Cc1ccc2c(c1)OC(F)(F)O2 [Compound I-49] | 100% |  | 100%
23 | CC(CCc1ccc(C(C)(C)C)cc1)CN(C)Cc1ccc(Cl)nc1 (stereo not drawn) [Compound I-50] |  | 100% | 

Row | SMILES | Preventive Value (%) (cucumber powdery mildew) | Preventive Value (%) (cucumber gray mold) | Preventive Value (%) [1]
24 | CN(Cc1ccc(Cl)nc1)CC(C)(C)CCc1ccc(C(C)(C)C)cc1 [Compound I-51] |  | 100% | 
25 | CC(CCCc1ccc(C(C)(C)C)cc1)CN(C)Cc1ccc(Cl)nc1 (stereo not drawn) [Compound I-52] |  | 100% | 
26 | CC(CCc1cccc(Oc2ccccc2)c1)CN(C)Cc1ccc(Cl)nc1 (stereo not drawn) [Compound I-54] |  | 100% | 
27 | CN(Cc1ccc(Cl)nc1)CC(C)(C)CCc1cccc(Oc2ccccc2)c1 [Compound I-55] | 100% |  | 
28 | CC(CCc1ccc(Cl)cc1Cl)CN(C)Cc1ccc(Cl)nc1 (stereo not drawn) [Compound I-56] | 100% |  | 100%
29 | CC(CC1CCC(C(C)(C)C)CC1)CN(C)Cc1ccc(Cl)nc1 (stereo not drawn) [Compound I-62, N-[3-(4-t-butylcyclohexyl)-2-methylpropyl]-6-chloro-N-methyl-3-pyridylmethylamine] |  | 100% | 100%
30 | CN(Cc1ccc(Cl)nc1)CC(C)(C)CC1CCC(C(C)(C)C)CC1 (stereo not drawn) [Compound I-63] |  | 100% | 
31 | CC(CCC1CCC(C(C)(C)C)CC1)CN(C)Cc1ccc(Cl)nc1 (stereo not drawn) [Compound I-64] |  | 100% | 
32 | CC(CCCC1CCC(C(C)(C)C)CC1)CN(C)Cc1ccc(Cl)nc1 (stereo not drawn) [Compound I-66] |  | 100% | 
33 | CN(Cc1ccc(Cl)nc1)CC(C)(C)Cc1ccc(OC(C)(C)C)cc1 [Compound I-73] | 100% | 100% | 100%
34 | CC(C)Oc1ccc(CC(C)(C)CN(C)Cc2ccc(Cl)nc2)cc1 [Compound I-74] | 100% | 100% | 100%
35 | CN(Cc1ccc(Cl)nc1)CC(C)(C)Cc1ccc(OCC(F)(F)F)cc1 [Compound I-82] | 100% | 100% | 100%
36 | CN(Cc1ccc(Cl)nc1)CC(C)(C)Cc1ccc(OC(F)(F)C(F)F)cc1 [Compound I-83] | 100% | 100% | 100%
37 | CN(Cc1ccc(Cl)nc1)CC(C)(C)Cc1ccc(OCC(F)(F)C(F)F)cc1 [Compound I-84] | 100% | 100% | 100%
38 | CN(Cc1ccc(Cl)nc1)CC(C)(C)Cc1ccc(OCC(F)(F)C(F)(F)F)cc1 [Compound I-85] | 100% | 100% | 100%
39 | COCc1ccc(CC(C)(C)CN(C)Cc2ccc(Cl)nc2)cc1 [Compound I-88] | 100% | 100% | 100%
40 | CCOCc1ccc(CC(C)(C)CN(C)Cc2ccc(Cl)nc2)cc1 [Compound I-89] | 100% | 100% | 100%
41 | COC(C)c1ccc(CC(C)(C)CN(C)Cc2ccc(Cl)nc2)cc1 (stereo not drawn) [Compound I-95] | 100% | 100% | 100%
42 | CCOC(C)c1ccc(CC(C)(C)CN(C)Cc2ccc(Cl)nc2)cc1 (stereo not drawn) [Compound I-96] | 100% | 100% | 100%
43 | CON=C(C)c1ccc(CC(C)(C)CN(C)Cc2ccc(Cl)nc2)cc1 [Compound I-116] | 100% | 100% | 100%
44 | CCON=C(C)c1ccc(CC(C)(C)CN(C)Cc2ccc(Cl)nc2)cc1 [Compound I-117] | 100% | 100% | 100%
45 | CCC(=NOC)c1ccc(CC(C)(C)CN(C)Cc2ccc(Cl)nc2)cc1 [Compound I-121] | 100% | 100% | 100%
